Assay results published in PMC11597089, “Kratom Alkaloids: A Blood–Brain Barrier Specific Membrane Permeability Assay-Guided Isolation and Cyclodextrin Complexation Study” (Molecules, 2024).

Legend:
[1] = PAMPA-BBB permeability assay; assay type: in vitro ADME, porcine; conditions: for in vitro BBB permeability: PAMPA-BBB, in words; for Papp at 4 h, 100 µM: pig, PAMPA, read-out: logPe PAMPA-BBB (n = 9) (converted)
Description: Kratom extracts were tested for the membrane permeability of their constituents in a PAMPA-BBB assay. […] The blood–brain barrier-specific assay was tested and optimized for natural products by Könczöl et al.; this PAMPA-BBB assay was therefore chosen to determine the BBB permeability of the kratom constituents. […] It should be noted, however, that among the minor components that were not the focus of this study, there may be BBB+ compounds with significant biological activity.
All four isolated kratom alkaloids were also tested in the PAMPA-BBB model. As it can be seen in Table 1, all the investigated compounds had logPe values of between −4.42 and −4.77, which were greater than −6.0; according to Könczöl et al., this value effectively discriminates between compounds with good (BBB+) and poor (BBB−) blood–brain barrier permeability.
PAMPA-BBB was used to determine the effective permeability (Pe) for some extracts and the isolated compounds. Stock solutions (10 mM in DMSO) were diluted with the buffer (pH 7.4) to obtain the donor solutions (composition: 594.0 μL buffer + 6.0 μL stock solution). The buffer was prepared as follows: one PBS (phosphate-buffered saline, pH 7.4; Sigma Aldrich, Budapest, Hungary) tablet dissolved in 200.0 mL distilled water. Donor solutions were filtered through Phenex-RC 15 mm, 0.2 μm syringe filters (Gen-Lab Ltd., Budapest, Hungary).
For PAMPA-BBB, 5 μL of porcine polar brain lipid extract (PBLE) solution (16.0 mg of PBLE + 8.0 mg of cholesterol dissolved in 600.0 μL of n-dodecane) was applied to each well of 96-well polycarbonate-based filter donor plates (top plate) (Multiscreen™-IP, MAIPN4510, pore size 0.45 μm; Merck). The 96-well PTFE acceptor plates (bottom plates) (Multiscreen Acceptor Plate, MSSACCEPTOR; Merck) were filled with 300.0 μL of buffer solution (0.01 M PBS buffer, pH 7.4). The donor plate was placed upon the acceptor plate, and both plates were incubated together at 37 °C for 4 h in a Heidolph Titramax 1000 Vibrating platform shaker (Heidolph, Schwabach, Germany).
After incubation, sandwich plates were separated, and the concentrations of each compound in the starting donor solution and in the acceptor and donor wells were determined in triplicate by the chromatographic peak areas derived from the UHPLC-UV method described above. The UV spectra and chromatograms were recorded at 200–400 nm, and the chromatograms acquired at the UV absorption maxima of each compound were used for data evaluation. The effective permeability and the membrane retention in PAMPA-BBB were calculated by Equations (1) and (2), respectively:(1) Pe=−2.303/A(t−τSS)·(VA·VD/VA+VD)·lg[1−(VA+VD/(1−MR)·VD)×(CA(t)/CD(0))] where Pe is the effective permeability coefficient (cm/s), A is the filter area (0.24 cm^2), VD and VA are the volumes in the donor (0.15 cm^3) and acceptor phases (0.30 cm^3), t is the incubation time (s), τSS is the time (s) to reach the steady state (240 s), CD(t) is the concentration (mol/cm^3) of the compound in the donor phase at time t, CD(0) is the concentration (mol/cm^3) of the compound in the donor phase at time 0, and MR is the estimated membrane retention factor (the estimated mole fraction of solute lost to the membrane), defined as (2) MR=1−CD(t)/CD(0)−VA/VDCA(t)/CD(0)
All experiments were performed in triplicate on three consecutive days (n = 9); caffeine standard was used as the positive control, with rutin as the negative control.

[2] = ACE complex stability, γ-CD; assay type: physicochemical; conditions: 30 mM phosphate buffer pH 7.4, 25 °C, 15 kV, 215 nm
Description: (§1) To investigate the CD complexation behavior of the four kratom alkaloids, we aimed to develop an ACE method for a systematic comparative study. […] To ensure sufficient buffer capacity and to avoid excessive current and Joule heat generation, the buffer concentration was set to 30 mM, and the applied voltage was 15 kV.
(§2) The ACE experiments were performed by using Agilent 7100 and HP^3DCE instruments (Agilent Technologies, Waldbronn, Germany). Untreated fused silica capillaries (total length of 48.5 cm, effective length of 40 cm, inner diameter of 50 μm) were purchased from Agilent Technologies. The new capillaries were conditioned with a 1 M NaOH wash for 1 h, followed by a 30 min wash each with 0.1 M NaOH and purified water. Prior to all runs, the capillary was preconditioned by rinsing with background electrolyte for 3 min. During the measurements, 30 mM phosphate buffer at pH 7.4 (30 mM Na2HPO4-NaOH) was used. The background electrolyte contained CDs at various concentrations. Stock solutions of the studied kratom alkaloids (mitragynine, paynantheine, speciogynine, speciociliatine) were prepared separately in methanol (1 mg/mL), and, right before the measurements, appropriate dilutions with purified water were used to prepare the sample solutions, applying 0.1% DMSO as the electroosmotic flow (EOF) marker. The samples were injected hydrodynamically at 40 mbar for 3 s. The positive polarity voltage was set to 15 kV, and the capillary was set to 25 °C. The electropherograms were recorded at four wavelengths (200 nm, 210 nm, 215 nm, and 220 nm), and the data were evaluated at 215 nm. In each case, three parallel measurements were performed. The measurements were evaluated using Origin and CEval software (v. 0.6i3).
(§3) In order to determine the complex stability constants that characterized the strength of the complexes, the first step was to determine the effective mobility of the analyte at specific CD concentrations. Triangular peaks caused by electromigration dispersion are often observed in ACE measurements.
(§4) Assuming a 1:1 complexation ratio and that the equilibrium CD concentration is almost equal to the total CD concentration, a relationship between the effective mobility relative to the EOF and the complex stability constant can be described by Function (4) (4) μeff=μA+μACDKstabCD/1+KstabCD where µeff is the effective mobility of the analyte, µA and µACD are the free and complexed analyte mobilities, [CD] is the concentration of the selector, and Kstab is the complex stability constant.
(§5) In order to calculate the exact, apparent, averaged complex stability constant values, viscosity correction and ionic strength correction were used.

[3] = ACE complex stability, DIME-β-CD; assay type: physicochemical; conditions: dimethylated-β-CD DS~14, 30 mM phosphate buffer pH 7.4, 25 °C
Description: as §1, §2
as §3, with “measurements. […]” for “measurements.”

[4] = ACE complex stability, RAME-β-CD; assay type: physicochemical; conditions: randomly methylated-β-CD DS~12, 30 mM phosphate buffer pH 7.4, 25 °C
Description: as §1, §2, §3, §4, §5

[5] = ACE complex stability, HP-γ-CD; assay type: physicochemical; conditions: hydroxypropylated-γ-CD DS~3, 30 mM phosphate buffer pH 7.4, 25 °C
Description: as §1, §2
as §3, with “measurements. […]” for “measurements.”

[6] = ACE complex stability, Succ-β-CD; assay type: physicochemical; conditions: succinyl-β-CD DS~6, 30 mM phosphate buffer pH 7.4, 25 °C
Description: as §1, §2, §3, §4, §5

[7] = ACE complex stability, ODMS-γ-CD; assay type: physicochemical; conditions: octakis-(2,3-O-dimethyl, 6-O-sulfo)-γ-CD, 30 mM phosphate buffer pH 7.4, 25 °C
Description: as §1, §2, §3, §4, §5

[8] = pH 7.4, 37 °C, 4 h, n = 9, Pe in cm/s

Molecule | in vitro BBB permeability [1] | Papp at 4 h, 100 µM [1, 8] [×10⁻⁶ cm/s] | complex stability constant (Kstab) with γ-CD [2] [M⁻¹] | complex stability constant (Kstab) with DIME-β-CD [3] [M⁻¹] | complex stability constant (Kstab) with RAME-β-CD [4] [M⁻¹] | complex stability constant (Kstab) with HP-γ-CD [5] [M⁻¹] | complex stability constant (Kstab) with Succ-β-CD [6] [M⁻¹] | complex stability constant (Kstab) with ODMS-γ-CD [7] [M⁻¹] | logPe PAMPA-BBB (n = 9) [1, 8]
C=C[C@H]1CN2CCc3c([nH]c4cccc(OC)c34)[C@@H]2C[C@@H]1/C(=C\OC)C(=O)OC [Paynantheine, paynantheine] | excellent | 24.5 | 140 ± 5 | 325 ± 30 | 170 ± 30 | 325 ± 50 | 360 ± 30 | 280 ± 25 | 
CC[C@@H]1CN2CCc3c([nH]c4cccc(OC)c34)[C@H]2C[C@@H]1/C(=C\OC)C(=O)OC [Speciociliatine, speciociliatine] | excellent | 26.3 | 15 ± 1 | 100 ± 6 | 20 ± 2 | 220 ± 25 | 470 ± 35 | 230 ± 15 | 
CC[C@H]1CN2CCc3c([nH]c4cccc(OC)c34)[C@@H]2C[C@@H]1/C(=C\OC)C(=O)OC [Speciogynine, speciogynine] | excellent | 17 | 45 ± 4 |  | 40 ± 1 |  | 840 ± 80 | 250 ± 15 | 
mitragynine | excellent |  | 55 ± 5 | 150 ± 15 | 95 ± 9 | 230 ± 35 | 375 ± 20 | 80 ± 7 | −4.42 ± 0.61
